Assay results published in US9440964B2, “Pesticidal compositions and processes related thereto” (Dow AgroSciences LLC, priority 2011, dated 2016).
Where two headings read alike, the source gives them in different places.

Columns and labels:
Format in all cases: in vivo
[1] = tested on: CEW (Helicoverpa zea); test: Bioassay on Corn Earworm (CEW), 128-well diet tray; conditions: Helicoverpa zea, 168 h; for pest or weed control at 0.5 µg/cm2: 0.5 μg/cm^2 on diet, read-out: Rating CEW (*Tested at 0.5 μg/cm^2); for pest or weed control at 50 µg/cm2: read-out: Rating CEW
Outline: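 Helicoverpa zea (corn earworm) was tested in a 128-well diet tray. Each 3 mL well received one to five second instar larvae on diet treated with the test material in an acetone-water mixture, applied to eight wells and dried. Trays were sealed with clear self-adhesive covers, kept at 25° C., 14:10 light-dark for five to seven days, then percent mortality was averaged across eight wells.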

[2] = tested on: Yellow Fever Mosquito YFM (Aedes aegypti); test: Bioassay on Yellow Fever Mosquito (YFM) larvae, 96-well plate; conditions: mortality of about 1 day-old larvae, scored after 3 days
Experimental: Certain molecules disclosed in this document were tested against YFM using procedures described in the following paragraph. In the reporting of the results, the “YFM Rating Table” was used (See Table Section).
Master plates containing 400 μg of a molecule dissolved in 100 μL of dimethyl sulfoxide (DMSO) (equivalent to a 4000 ppm solution) are used. A master plate of assembled molecules contains 15 μL per well. To this plate, 135 μL of a 90:10 water:acetone mixture is added to each well. A robot (Biomek® NXP Laboratory Automation Workstation) is programmed to dispense 15 μL aspirations from the master plate into an empty 96-well shallow plate (“daughter” plate). There are 6 reps (“daughter” plates) created per master. The created daughter plates are then immediately infested with YFM larvae.
The day before plates are to be treated, mosquito eggs are placed in Millipore water containing liver powder to begin hatching (4 g. into 400 ml). After the daughter plates are created using the robot, they are infested with 220 μL of the liver powder/larval mosquito mixture (about 1 day-old larvae). After plates are infested with mosquito larvae, a non-evaporative lid is used to cover the plate to reduce drying. Plates are held at room temperature for 3 days prior to grading. After 3 days, each well is observed and scored based on mortality.
(§1) The results are indicated in the table entitled “Table ABC: Biological Results” (See Table Section).

[3] = tested on: BAW (Spodoptera exigua); test: Bioassay on Beet Armyworm (BAW), 128-well diet tray; conditions: Spodoptera exigua, 168 h, read-out: Rating BAW
Outline: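 Second-instar Spodoptera exigua larvae (one to five per well) placed on artificial diet surface-treated with 50 μg/cm^2 compound in 90:10 acetone-water, dried, eight wells per compound. Held 5–7 days at 25 °C, 14:10 light-dark; percent mortality averaged across wells.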

[4] = tested on: Green Peach Aphid (GPA) (Myzus persica); test: Bioassay on Green Peach Aphid (GPA), cabbage seedling foliar spray; conditions: 72 h, read-out: Rating GPA
Experimental: Certain molecules disclosed in this document were tested against GPA using procedures described in the following example. In the reporting of the results, the “GPA Rating Table” was used (See Table Section).
Cabbage seedlings grown in 3-inch pots, with 2-3 small (3-5 cm) true leaves, were used as test substrate. The seedlings were infested with 20-50 GPA (wingless adult and nymph stages) one day prior to chemical application. Four pots with individual seedlings were used for each treatment. Test compounds (2 mg) were dissolved in 2 mL of acetone/MeOH (1:1) solvent, forming stock solutions of 1000 ppm test compound. The stock solutions were diluted 5× with 0.025% Tween 20 in H2O to obtain the solution at 200 ppm test compound. A hand-held aspirator-type sprayer was used for spraying a solution to both sides of […] leaves until runoff. Reference plants (solvent check) were sprayed with the diluent only containing 20% by volume of acetone/MeOH (1:1) solvent. Treated plants were held in a holding room for three days at approximately 25° C. and ambient relative humidity (RH) prior to grading. Evaluation was conducted by counting the number of live aphids per plant under a microscope. Percent Control was measured by using Abbott's correction formula (W. S. Abbott, “A Method of Computing the Effectiveness of an Insecticide” J. Econ. Entomol. 18 (1925), pp. 265-267) as follows. Corrected % Control=100*(X−Y)/X • where • X=No. of live aphids on solvent check plants and • Y=No. of live aphids on treated plants
as §1

[5] = percent mortality, second instar larvae, five to seven days
[6] = percent mortality, second instar larvae, 50 μg/cm^2 on diet, five to seven days
[7] = corrected % control (Abbott), 200 ppm foliar spray on cabbage, three days

Row | SMILES | pest or weed control at 0.5 µg/cm2 [1, 5] | Rating YFM [2] | pest or weed control at 50 µg/cm2 [3, 6] | pest or weed control at 50 µg/cm2 [1, 6] | pest or weed control at 200 ppm [4, 7] | pest or weed control at 50 µg/cm2 [1] | pest or weed control at 50 µg/cm2 [3] | pest or weed control at 200 ppm ([4]; foliar)
1 | Cc1ccccc1N1C(=O)CS/C1=N\C(=O)Nc1ccc(-c2ncn(-c3ccc(OC(F)(F)F)cc3)n2)cc1 [Molecule A65] | 50 to 100% | A (80-100) | 50 to 100% |  |  |  |  | 
2 | COc1ccc(N/C(=N\C(=O)Nc2ccc(-c3ncn(-c4ccc(OC(F)(F)F)cc4)n3)cc2)SCOC(=O)C(C)C)cc1 [Molecule A62] |  | A (80-100) | 50 to 100% | 50 to 100% |  |  |  | 
3 | COc1ccc(N/C(O)=C/C(=O)Nc2ccc(-c3ncn(-c4ccc(OC(F)(F)F)cc4)n3)cc2)c(C)c1 [Molecule A33, (Z)-3-hydroxy-3-(4-methoxy-2-methylphenylamino)-N-(4-(1-(4-(trifluoromethoxy)phenyl)-1H-1,2,4-triazol-3-yl)phenyl)acrylamide] |  |  | 50 to 100% | 50 to 100% | 0 to 80% |  |  | 
4 | Cc1ccccc1N/C(S)=N/C(=O)Nc1ccc(-c2ncn(-c3ccc(OC(F)(F)F)cc3)n2)cc1 [Molecule A80] |  | B (More than 0-Less than 80) | 50 to 100% | 50 to 100% |  |  |  | 
5 | COc1cc(C)c(N/C(=N/C(=O)Nc2ccc(-c3ncn(-c4ccc(C(F)(F)F)cc4)n3)cc2)SCOC(=O)CNC(=O)OCc2ccccc2)c(C)c1 [Molecule A9, (E)-((N′-(4-Methoxy-2,6-dimethylphenyl)-N-((4-(1-(4-(trifluoromethyl)phenyl)-1H-1,2,4-triazol-3-yl)phenyl)carbamoyl)carbamimidoyl)thio)methyl 2-(((benzyloxy)carbonyl)amino)acetate] |  |  |  |  |  | 50 to 100% | 50 to 100% | 0 to 80%
6 | Cc1cccc(C)c1N1C(=O)CS/C1=N\C(=O)Nc1ccc(-c2ncn(-c3ccc(OC(F)(F)F)cc3)n2)cc1 [Molecule A14, (Z)-1-(3-(2,6-dimethylphenyl)-4-oxothiazolidin-2-ylidene)-3-(4-(1-(4-(trifluoromethoxy)phenyl)-1H-1,2,4-triazol-3-yl)phenyl)urea] |  | A (80-100) | 50 to 100% | 50 to 100% | 0 to 80% |  |  | 
7 | Cc1ccc(N2C(=O)CS/C2=N\C(=O)Nc2ccc(-c3ncn(-c4ccc(OC(F)(F)F)cc4)n3)cc2)c(Cl)c1 [Molecule A77] | 50 to 100% | B (More than 0-Less than 80) | 50 to 100% |  |  |  |  | 
8 | CCc1ccccc1N/C(S)=N/C(=O)Nc1ccc(-c2ncn(-c3ccc(OC(F)(F)F)cc3)n2)cc1 [Molecule A46] |  | A (80-100) | 50 to 100% | 50 to 100% | 0 to 80% |  |  | 
9 | Cc1cc(-c2ncn(-c3ccc(OC(F)(F)F)cc3)n2)ccc1NC(=O)/N=C1\SCC(=O)N1c1ccccc1C(C)C [Molecule A123, (Z)-1-(3-(2-isopropylphenyl)-4-oxothiazolidin-2-ylidene)-3-(2-methyl-4-(1-(4-(trifluoromethoxy)phenyl)-1H-1,2,4-triazol-3-yl)phenyl)urea] | 50 to 100% | A (80-100) | 50 to 100% |  |  |  |  | 
10 | COc1ccc(N2C(=O)CS/C2=N\C(=O)Nc2ccc(-c3ncn(-c4ccc(OC(F)(F)F)cc4)n3)cc2)c(C)c1 [Molecule A110] | 50 to 100% | A (80-100) | 50 to 100% |  |  |  |  | 
11 | CC(C)c1cccc(Cl)c1N1C(=O)CS/C1=N\C(=O)Nc1ccc(-c2ncn(-c3ccc(OC(F)(F)F)cc3)n2)cc1 [Molecule A85] | 50 to 100% | A (80-100) | 50 to 100% |  |  |  |  | 
12 | CCc1ccccc1N1C(=O)CS/C1=N\C(=O)Nc1ccc(-c2ncn(-c3ccc(OC(F)(F)F)cc3)n2)cc1 [Molecule A35] |  | A (80-100) | 50 to 100% | 50 to 100% |  |  |  | 
13 | CCC(C)c1ccccc1N1C(=O)CS/C1=N\C(=O)Nc1ccc(-c2ncn(-c3ccc(OC(F)(F)F)cc3)n2)cc1 (stereo not drawn) [Molecule A18, (Z)-1-(3-(2-(sec-butyl)phenyl)-4-oxothiazolidin-2-ylidene)-3-(4-(1-(4-(trifluoromethoxy)phenyl)-1H-1,2,4-triazol-3-yl)phenyl)urea] |  | A (80-100) | 50 to 100% | 50 to 100% |  |  |  | 
14 | COc1ccc(N/C(O)=C/C(=O)Nc2ccc(-c3ncn(-c4ccc(OC(F)(F)F)cc4)n3)cc2)c(C(C)C)c1 [Molecule A34, (Z)-3-hydroxy-3-(2-isopropyl-4-methoxyphenylamino)-N-(4-(1-(4-(trifluoromethoxy)phenyl)-1H-1,2,4-triazol-3-yl)phenyl)acrylamide] |  | A (80-100) | 50 to 100% | 50 to 100% |  |  |  | 
15 | Cc1cccc(C)c1N/C(=N/C(=O)Nc1ccc(-c2ncn(-c3ccc(C(F)(F)F)cc3)n2)cc1)SCOC(=O)C(C)C [Molecule A3, (E)-(N′-(2,6-Dimethylphenyl)-N-(4-(1-(4-(trifluoromethyl)phenyl)-1H-1,2,4-triazol-3-yl)phenylcarbamoyl)carbamimidoylthio) methyl isobutyrate] |  | A (80-100) | 50 to 100% | 50 to 100% |  |  |  | 
16 | Cc1cccc(C)c1N/C(=N/C(=O)Nc1ccc(-c2ncn(-c3ccc(OC(F)(F)F)cc3)n2)cc1)SCOC(=O)C(C)C [Molecule A4, (E)-(N′-(2,6-Dimethylphenyl)-N-(4-(1-(4-(trifluoromethyoxy)phenyl)-1H-1,2,4-triazol-3-yl)phenylcarbamoyl)carbamimidoylthio)methyl isobutyrate] |  | A (80-100) | 50 to 100% | 50 to 100% | 0 to 80% |  |  | 
17 | CCCc1ccccc1N1C(=O)CS/C1=N\C(=O)Nc1ccc(-c2ncn(-c3ccc(OC(F)(F)F)cc3)n2)cc1 [Molecule A69] | 50 to 100% | A (80-100) | 50 to 100% |  |  |  |  | 
18 | Cc1cc(-c2ncn(-c3ccc(OC(F)(F)F)cc3)n2)ccc1NC(=O)/N=C(\S)Nc1ccccc1C(C)C [Molecule A122, N-[[(2-isopropyllphenyl)amino]thioxomethyl]-N′-(2-methyl(4-(1-(4-(trifluoromethoxy)phenyl)-1H-1,2,4-triazol-3-yl)phenyl))urea] | 50 to 100% | A (80-100) | 50 to 100% |  |  |  |  | 
19 | COc1cc(C)c(N/C(=N/C(=O)Nc2ccc(-c3ncn(-c4ccc(OC(F)(F)F)cc4)n3)cc2)SCOC(=O)C(C)C)c(C)c1 [Molecule A7, (E)-(N′-(2,6-Dimethyl-4-methoxyphenyl)-N-(4-(1-(4-(trifluoromethyoxy)phenyl)-1H-1,2,4-triazol-3-yl)phenylcarbamoyl)carbamimidoylthio)methyl isobutyrate] |  |  | 50 to 100% | 50 to 100% | 0 to 80% |  |  | 
20 | Cc1cccc(C)c1N/C(S)=N/C(=O)Nc1ccc(-c2ncn(-c3ccc(OC(F)(F)F)cc3)n2)cc1 [Molecule A11] |  |  | 50 to 100% | 50 to 100% | 0 to 80% |  |  | 
